Experimental data as given in US20240271096A1, “EFFICIENT DIFFERENTIATION OF SECOND HEART FIELD CARDIAC PROGENITOR CELLS AND RIGHT VENTRICLE CARDIOMYOCYTES FROM HUMAN PLURIPOTENT STEM CELLS” (Wisconsin Alumni Research Foundation, priority 2023, published 2024).

Tested on: human induced pluripotent stem cell-derived cardiac progenitor cells
Assay: Quantitative PCR of heart field and cardiac markers in differentiating hiPSCs (day 0 to day 7)
Format: cell-based
Conditions: B-27 containing insulin day 0 to day 1; qPCR day 7; vs control cells
Protocol: For LV-cardiomyocyte differentiation, cardiac differentiation was performed according to the protocol published by (Lian et al., 2012, Proc Natl Acad Sci USA 109:[…]-57). Cells were dissociated with StemPro Accutase Cell Dissociation Reagent at 37° C. for 5 minutes. HESCs were seeded on Matrigel-coated 24-well plates (Corning) in StemFlex Medium supplemented with 10 μmol/[…] were seeded on iMatrix-511-coated 12-well plates (Corning) in StemFit A[…] supplemented with 10 μmol/[…] at seeding densities of 1×10^5 cells/cm^2 for hESCs and 1.25-2.5×10^4 cells/cm^2 for hiPSCs. Cells were cultured for 4 days until the start of differentiation (day 0). On day 0, the medium was changed to RPMI 1640 Medium (Thermo Fisher Scientific) supplemented with B-27 Supplement minus insulin (Thermo Fisher Scientific) (RPMI/B27-insulin) or B-27 Supplement with insulin (Thermo Fisher Scientific), and 12 μmol/L CHIR 99021 (SelleckChem, Houston, TX, United States), and the cells incubated in this medium for 24 h (day 1). On day 1, the medium was changed to RPMI/B27-insulin. […] PowerUpTM SYBR Green Master Mix (Thermo Fisher Scientific) and QuantStudio 1 (Thermo Fisher Scientific) were used for quantitative PCR (q-PCR), wherein q-PCR data were processed using the ΔΔCT method. […] Data were analyzed with the web-based tool of GeneGlobe Data Analysis Center (Qiagen).

For insulin, the “expression levels of FHF markers (TBX5 and HCN4)” value was “lower expression levels” and the “mRNA expression levels of SHF markers (ISL1 and CXCR4)” value was “higher mRNA expression levels”.
